From US5258362A, “Renin inhibiting compounds” (Abbott Laboratories, priority 1992, dated 1993) come the findings set out here.

As usually defined, the pIC50 is −log10 of the IC50, conventionally taken in molar units.

pIC50: −log10 of the molar value.

The test deals with T1, human renal renin (Homo sapiens, UniProt P00797).
T1 construct: human renal renin, free from acid proteolytic activity; from tissue; host or cells: human kidney (from the word 'renal')
T1 sequence (P00797 67-406): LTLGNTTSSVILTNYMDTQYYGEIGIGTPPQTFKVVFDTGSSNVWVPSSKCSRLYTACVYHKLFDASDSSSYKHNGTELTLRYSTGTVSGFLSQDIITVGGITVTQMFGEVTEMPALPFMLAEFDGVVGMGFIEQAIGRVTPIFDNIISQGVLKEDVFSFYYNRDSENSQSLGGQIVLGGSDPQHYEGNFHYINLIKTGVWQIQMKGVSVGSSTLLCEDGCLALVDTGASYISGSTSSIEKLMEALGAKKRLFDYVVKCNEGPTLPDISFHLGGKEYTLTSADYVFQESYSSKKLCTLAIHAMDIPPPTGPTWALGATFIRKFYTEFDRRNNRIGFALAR
Briefly: Inhibition of human renal renin in vitro (angiotensin I formed, measured by radioimmunoassay). The class given is biochemical. Conditions: human renal renin with renin substrate (human angiotensinogen), 37° C., pH 6.0. On the procedure:
At the end of the incubation, the amount of angiotensin I formed is measured by radioimmunoassay and the molar concentration required to cause 50% inhibition, expressed as the IC50 is calculated.
Take `CCCCC(NC(=O)CCc1ccccc1)C(=O)N[C@@H](CC1CCCCC1)[C@@H](O)[C@H]1OC[C@@H]1CC` (stereo partly drawn) [Example 186, Dihydrocinnamoyl-(nor)Leucine Amide of (1R,2S,2'S,3'S)-2-Amino-3-cyclohexyl-1-[3'-(ethyl)oxetan-2'-yl]-1-(hydroxy)propane]: the pIC50 is 8.48.
To `CCCC[C@H](NC(=O)C(Cc1ccccc1)Cc1ccccc1)C(=O)N[C@@H](CC1CCCCC1)[C@@H](O)[C@H]1OC[C@@H]1CC` [Example 188, Dibenzylacetyl-(nor)Leucine Amide of (1R,2S,2'S,3'S)-2-Amino-3-cyclohexyl-1-[3'-(ethyl)oxetan-2'-yl]-1-(hydroxy)propane] belongs 9.17.
With `CCCC[C@H](NC(=O)[C@H](Cc1ccccc1)Cn1ccnc1)C(=O)N[C@@H](CC1CCCCC1)[C@@H](O)[C@H]1OC[C@@H]1CC` [Example 189, (2R)-2-Benzyl-3-(imidazol-1-yl)propionyl-(nor)Leucine Amide of (1R,2S,2'S,3'S)-2-Amino-3-cyclohexyl-1-[3'-(ethyl)oxetan-2'-yl]-1-(hydroxy)propane], the pIC50 was 9.34.
To `CC[C@H]1CO[C@@H]1[C@H](O)[C@H](CC1CCCCC1)NC(=O)C(C)NC(=O)[C@H](Cc1ccccc1)CS(=O)(=O)N1CCN(C)CC1` (stereo partly drawn) [Example 191, (2S) 2-Benzyl-3-(1-methyl-piperazin-4-ylsulfonyl)propionylalanine Amide of (1R,2S,2'S,3'S)-2-Amino-3-cyclohexyl-1-[3'-(ethyl)oxetan-2'-yl]-1-(hydroxy)propane] belongs 9.24.
To `CC[C@H]1CO[C@@H]1[C@H](O)[C@H](CC1CCCCC1)NC(=O)C(C)NC(=O)[C@H](Cc1ccccc1)Cn1ccnc1` (stereo partly drawn) [Example 192, (2R)-2-Benzyl-3-(imidazol-1-yl)propionyl-alanine Acid of (1R,2S,2'S,3'S)-2-Amino-3-cyclohexyl-1-[3'-(ethyl)oxetan-2'-yl]-1-(hydroxy)propane] belongs 8.47.
